Laboratory results as given in patent publication US8101750B2, “Process for the manufacturing of the compound 2-hydroxy-3-[5-(morpholin-4-ylmethyl)pyridin-2-yl]1H-indole-5-carbonitrile 701” (AstraZeneca AB, priority 2007, dated 2012).

melting point: 51 to 52 °C
Structure (SMILES): Cc1ccc(CN2CCOCC2)cn1
